From US7691387B2, “Cinnamomi and poria composition, method to prepare same and uses thereof” (Jiangsu Kanion Pharmaceutical Co., Ltd, priority 2000, dated 2010)

Tests used:
[1] = system: extra-corporeal platelet aggregation of rabbits; experiment: Extra-corporeal platelet aggregation of rabbit (ADP); assay type: cell-based; details: 0.3 Mg/ml
[2] = system: platelet aggregation of rats; experiment: Platelet aggregation experiments of rats; assay type: in vivo, Wister rats; details: 0.1 g/kg once
Protocol: The drug concentration is 0.5 mg/ml. […] The drug concentration is 1 g/ml. […] The drug concentration is 1 g/ml. Experimental process: […] Half an hour after administering the drug on the fifth day, use ether to anaesthetize the rats. […] Administer a 0.1 g/kg aspirin once to the positive control group. Prepare platelet plasma according to the method explained previously. Do the aggregation experiments, and record the conditions of every group.

[3] = system: twisting responses of mice induced by acetic acid; experiment: Acetic acid twisting experiment; assay type: in vivo; details: positive control, 0.2 g/kg
Protocol: Randomly divide the animals into 5 groups. […] After the drug has been administered on the third day, celio-inject 0.5% acetic acid to the mice in groups. Observe and record the times of twisting of mice within 30 minutes. [formula]

ear swelling of mice = experiment: Croton oil ear swelling of mice; assay type: in vivo, Kunming mice; details: 0.025 g/Kg, three days
Protocol: Preparation of drug: Put 12.5 g of extract of CCP in 100 ml of normal saline, and mix adequately. The drug concentration is […]. Put 25 g of extract of CCP in 100 ml of normal saline, and mix adequately. The drug concentration is 1 g/ml. Put 50 g of extract of CCP in 100 ml of normal saline, and mix adequately. The drug concentration is 2 g/ml. Put 12.5 g of the Bolus of Cinnamomi & Poria in 100 ml of normal saline, and mix adequately. The drug concentration is […]. Put 25 g of extract in 100 ml of normal saline, and mix adequately. The drug concentration is 1 g/ml. Put 50 g of extract in 100 ml of normal saline, and mix adequately. The drug concentration is 2g/ml. Put 0.1 g of Hydrocortisone in 100 ml of normal saline. The drug concentration is 1 mg/ml. Administer all three preparations (a total of seven different solutions) with 10 ml/kg.
Experimental method: According to their weight, randomly divide fifty male mice into eight groups. Administer different doses of the seven solutions mentioned above for three days and for the control group administer the normal saline of the same volume. After three days of administering the drug, besmear […] croton oil on both sides of every mouse's left ear (compare with right ear). […]

SMILES | Aggregation(%) [1] [%] | Aggregation ratio [2] | controlling rate of twisting times [3] [%] | Average swelling degree (ear swelling of mice)
CC(=O)Oc1ccccc1C(=O)O [Aspirin, Acetylsalicylic acid] | 32.94 ± 1.68 | 26.58 ± 10.58 | 61.08 | 
C[C@]12CCC(=O)C=C1CC[C@@H]1[C@@H]2[C@@H](O)C[C@@]2(C)[C@H]1CC[C@]2(O)C(=O)CO [Hydrocortisone] |  |  |  | 4.68 ± 3.43
